Experimental data: CN1221752A, “与阿卡加定相关的新型羊毛硫抗生素及其制备方法和用途” (priority 1997, dated 1999)
Like-named read-outs stand apart in the source and are kept apart here.

What was measured:
粪肠球茵 02D2DU18 = assay: In vitro antibacterial activity, MIC, 18 h; format: cell-based; conditions: incubation time 18h; strain 02D2DU18
S.milleri 02milGR12 = assay: In vitro antibacterial activity, MIC, 18 h; format: cell-based; conditions: incubation time 18h; strain 02milGR12
化脓葡萄球菌 02A1SJ1 = assay: In vitro antibacterial activity, MIC, 18 h; format: cell-based; conditions: incubation time 18h; strain 02A1SJ1
化脓葡萄球菌 02A1F16 = assay: In vitro antibacterial activity, MIC, 18 h; format: cell-based; conditions: incubation time 18h; strain 02A1F16
表皮葡萄球菌 012GO42 = assay: In vitro antibacterial activity, MIC, 18 h; format: cell-based; conditions: incubation time 18h; strain 012GO42
[1] = tested on: Staph.coag.negative012HT5; assay: In vitro antibacterial activity, MIC, 18 h; format: cell-based, Staph.coag.negative; conditions: incubation time 18h; strain 012HT5
金黄色葡萄球菌SG511 = format: cell-based, 金黄色葡萄球菌
金黄色葡萄球菌 O11HT1 = assay: In vitro antibacterial activity, MIC, 18 h; format: cell-based; conditions: incubation time 18h; strain O11HT1
化脓葡萄球菌 02A1CU1 = assay: In vitro antibacterial activity, MIC, 18 h; format: cell-based; conditions: incubation time 18h; strain 02A1CU1
化脓葡萄球菌A561 = format: cell-based, 化脓葡萄球菌; conditions: strain A561
大肠杆菌 = format: cell-based
S.mitis 02mitGR16 = assay: In vitro antibacterial activity, MIC, 18 h; format: cell-based; conditions: incubation time 18h; strain 02mitGR16
011HT18 = assay: In vitro antibacterial activity, MIC, 18 h; format: cell-based; conditions: incubation time 18h; strain 011HT18
屎肠球菌M78L = format: cell-based, 屎肠球菌; conditions: strain M78L
金黄色葡萄球菌 0121O64 = assay: In vitro antibacterial activity, MIC, 18 h; format: cell-based; conditions: incubation time 18h; strain 0121O64
粪肠球菌 02D2uC5 = assay: In vitro antibacterial activity, MIC, 18 h; format: cell-based; conditions: incubation time 18h; strain 02D2uC5
011HT3 = assay: In vitro antibacterial activity, MIC, 18 h; format: cell-based; conditions: incubation time 18h
金黄色葡萄球菌 011CB20 = assay: In vitro antibacterial activity, MIC, 18 h; format: cell-based; conditions: incubation time 18h; strain 011CB20
S.pnenmoniae 030BI2 = assay: In vitro antibacterial activity, MIC, 18 h; format: cell-based; conditions: incubation time 18h; strain 030BI2
Streptogr G02G0CB2 = assay: In vitro antibacterial activity, MIC, 18 h; format: cell-based, Streptogr G; conditions: incubation time 18h; strain 02G0CB2
粪肠球菌 02D2HT10 = assay: In vitro antibacterial activity, MIC, 18 h; format: cell-based; conditions: incubation time 18h; strain 02D2HT10
表皮葡萄球菌 012GO20 = assay: In vitro antibacterial activity, MIC, 18 h; format: cell-based; conditions: incubation time 18h; strain 012GO20
粪肠球菌 02D2HM9 = assay: In vitro antibacterial activity, MIC, 18 h; format: cell-based; conditions: incubation time 18h; strain 02D2HM9
金黄色葡萄球菌 011DU5 = assay: In vitro antibacterial activity, MIC, 18 h; format: cell-based; conditions: incubation time 18h; strain 011DU5
金黄色葡萄球菌Exp54146 = format: cell-based, 金黄色葡萄球菌; conditions: strain Exp54146
[2] = Stability in solution (physicochemical properties); conditions: neutral / weakly alkaline vs strongly acidic / strongly alkaline media
[3] = Solubility (physicochemical properties); conditions: methanol, water
[4] = Tolerability and toxicity; conditions: at the active concentration and the concentrations mentioned above
[5] = incubation time 24h, strain SG511
[6] = incubation time 24h, strain SG511 + 10% serum
[7] = strain 011HT3 + 50% serum (first such line)
[8] = strain 011HT3 + 50% serum (second such line)
[9] = Boc-derivative table, 接种时间24h, strain SG511
[10] = Boc-derivative table, 接种时间24h, strain SG511 + 10% serum

Substance	MIC (粪肠球茵 02D2DU18) [µg/mL]	MIC (S.milleri 02milGR12) [µg/mL]	MIC (化脓葡萄球菌 02A1SJ1) [µg/mL]	MIC (化脓葡萄球菌 02A1F16) [µg/mL]	MIC (表皮葡萄球菌 012GO42) [µg/mL]	MIC [1] [µg/mL]	MIC (金黄色葡萄球菌SG511; [5]) [µg/mL]	MIC (金黄色葡萄球菌SG511; [6]) [µg/mL]	MIC (金黄色葡萄球菌 O11HT1) [µg/mL]	MIC (化脓葡萄球菌 02A1CU1) [µg/mL]	MIC (化脓葡萄球菌A561; incubation time 24h) [µg/mL]	MIC (大肠杆菌; incubation time 24h) [µg/mL]	MIC (S.mitis 02mitGR16) [µg/mL]	MIC (011HT18) [µg/mL]	MIC (屎肠球菌M78L; incubation time 24h) [µg/mL]	MIC (金黄色葡萄球菌 0121O64) [µg/mL]	MIC (粪肠球菌 02D2uC5) [µg/mL]	MIC (011HT3; strain 011HT3) [µg/mL]	MIC (011HT3; [7]) [µg/mL]	MIC (金黄色葡萄球菌Exp54146; incubation time 24h) [µg/mL]	also measured
Ile(0)-阿卡加定 [Ile-Acta]	5	> 40	≤ 0.04	≤ 0.04	> 40	> 40	1.2	2.5	1.2	≤ 0.04	≤ 0.04	> 40	10	> 40	5	> 40	40	2.5	2.5	2.5	MIC (011HT3; [8]): 5 µg/mL; MIC (金黄色葡萄球菌 011CB20): 40 µg/mL; MIC (S.pnenmoniae 030BI2): 1.2 µg/mL; MIC (Streptogr G02G0CB2): 10 µg/mL; MIC (粪肠球菌 02D2HT10): > 40 µg/mL; MIC (表皮葡萄球菌 012GO20): > 40 µg/mL; MIC (粪肠球菌 02D2HM9): 40 µg/mL; MIC (金黄色葡萄球菌 011DU5): 10 µg/mL
Gln(0)-阿卡加定 [Gln-Acta]	–	–	–	–	–	–	20	40	–	–	5	> 40	–	–	10	–	–	–	–	> 40	–
二-Boc-Lys(0)-阿卡加定 [Boc-Lys-Acta]	10	5	0.08	≤ 0.04	> 40	> 40	–	–	10	≤ 0.04	–	–	5	> 40	–	> 40	40	10	20	–	MIC (金黄色葡萄球菌SG511; [9]): 2.5 µg/mL; MIC (金黄色葡萄球菌SG511; [10]): 10 µg/mL; MIC (化脓葡萄球菌A561; Boc-derivative table, 接种时间24h): ≤ 0.04 µg/mL; MIC (大肠杆菌; Boc-derivative table, 接种时间24h): > 40 µg/mL; MIC (屎肠球菌M78L; Boc-derivative table, 接种时间24h): 10 µg/mL; MIC (011HT3; [8]): 40 µg/mL; MIC (S.pnenmoniae 030BI2): 1.2 µg/mL; MIC (Streptogr G02G0CB2): 2.5 µg/mL; MIC (粪肠球菌 02D2HT10): > 40 µg/mL; MIC (表皮葡萄球菌 012GO20): > 40 µg/mL; MIC (粪肠球菌 02D2HM9): > 40 µg/mL; MIC (金黄色葡萄球菌 011DU5): 40 µg/mL; MIC (金黄色葡萄球菌Exp54146; Boc-derivative table, 接种时间24h): 10 µg/mL
Ala(0)-阿卡加定	5	40	≤ 0.04	≤ 0.04	> 40	> 40	5	20	1.1	≤ 0.04	≤ 0.04	> 40	20	> 40	5	> 40	20	20	20	40	Stability in solution [2]: 于中性和弱碱性介质中稳定，但于强酸性和强碱性溶液中不稳定; Solubility [3]: 溶于甲醇和水; MIC (011HT3; [8]): 40 µg/mL; MIC (金黄色葡萄球菌 011CB20): > 40 µg/mL; MIC (S.pnenmoniae 030BI2): 2.5 µg/mL; Cytotoxicity or other toxicity [4]: 没有发现其细胞毒性或其它的毒性; Tolerability [4]: 耐受性很好; MIC (Streptogr G02G0CB2): 20 µg/mL; MIC (粪肠球菌 02D2HT10): > 40 µg/mL; MIC (表皮葡萄球菌 012GO20): > 40 µg/mL; MIC (粪肠球菌 02D2HM9): > 40 µg/mL; MIC (金黄色葡萄球菌 011DU5): 40 µg/mL
Phe(0)-阿卡加定 [Phe-Acta]	–	–	–	–	–	–	0.6	5	–	–	> 40	> 40	–	–	> 40	–	–	–	–	5	–
Boc-Ile(0)-阿卡加定 [Boc-Ile-Acta]	–	–	–	–	–	–	–	–	–	–	–	–	–	–	–	–	–	–	–	–	MIC (金黄色葡萄球菌SG511; [9]): 20 µg/mL; MIC (金黄色葡萄球菌SG511; [10]): 40 µg/mL; MIC (化脓葡萄球菌A561; Boc-derivative table, 接种时间24h): > 40 µg/mL; MIC (大肠杆菌; Boc-derivative table, 接种时间24h): > 40 µg/mL; MIC (屎肠球菌M78L; Boc-derivative table, 接种时间24h): > 40 µg/mL; MIC (金黄色葡萄球菌Exp54146; Boc-derivative table, 接种时间24h): > 40 µg/mL
N-Boc-Abu(0)-阿卡加定 [Boc-Abu-Acta]	–	–	–	–	–	–	–	–	–	–	–	–	–	–	–	–	–	–	–	–	MIC (金黄色葡萄球菌SG511; [9]): 5 µg/mL; MIC (金黄色葡萄球菌SG511; [10]): 10 µg/mL; MIC (化脓葡萄球菌A561; Boc-derivative table, 接种时间24h): > 40 µg/mL; MIC (大肠杆菌; Boc-derivative table, 接种时间24h): > 40 µg/mL; MIC (屎肠球菌M78L; Boc-derivative table, 接种时间24h): > 40 µg/mL; MIC (金黄色葡萄球菌Exp54146; Boc-derivative table, 接种时间24h): > 40 µg/mL
Lys(0)-阿卡加定 [Lys-Acta]	5	40	≤ 0.04	≤ 0.04	> 40	> 40	1.2	2.5	0.6	≤ 0.04	≤ 0.04	> 40	10	> 40	5	> 40	40	10	10	10	MIC (011HT3; [8]): 10 µg/mL; MIC (金黄色葡萄球菌 011CB20): > 40 µg/mL; MIC (S.pnenmoniae 030BI2): 2.5 µg/mL; MIC (Streptogr G02G0CB2): 5 µg/mL; MIC (粪肠球菌 02D2HT10): > 40 µg/mL; MIC (表皮葡萄球菌 012GO20): > 40 µg/mL; MIC (粪肠球菌 02D2HM9): > 40 µg/mL; MIC (金黄色葡萄球菌 011DU5): 10 µg/mL
Phe-Ala(0)-阿卡加定 [Phe-Ala-Acta]	–	–	–	–	–	–	5	10	–	–	> 40	> 40	–	–	10	–	–	–	–	20	–
